One assay concerns the target T1, human CDK4/cyclin D3 (Homo sapiens, UniProt P11802).
T1 construct: made in house; host or cells: insect cells co-infected with baculovirus vectors
Briefly: Inhibition of CDK4/cyclin D retinoblastoma kinase activity (Ki; % inhibition). It is filed as biochemical. Particulars: at 0.03 μM. The essentials: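 Radiometric filter-binding read-out: Rb residues 386-928 phosphorylated by 5 nM CDK4/cyclin D3(1-264) from baculovirus-infected insect cells, 25 μM ATP, HEPES pH 7.4, 30 °C. Run 20 min, or 60 min for tight-binding inhibitors. Screening at 30 nM theoretical compound; apparent Ki by competitive-inhibition fitting.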

For the next assay, the target named is T2, CDK2/cyclin A (Homo sapiens, UniProt P24941).
T2 construct: made in house; host or cells: CDK2: insect cells (baculovirus); cyclin A: E. coli
Briefly: Inhibition of CDK2/cyclin A retinoblastoma kinase activity (Ki; % inhibition). It counts as biochemical. Particulars: at 0.03 μM. Put shortly:
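Apparent Ki values came from fitting concentration-dependent activity data to competitive (or competitive tight-binding) models, and % inhibition from single 30 nM screens of library compounds. Activity was measured as ³²P/³³P incorporation from 25 μM ATP into an Rb substrate by 10 or 19 nM CDK2/delta cyclin A at 30 °C over 60–75 min, pH 7.4.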

The next assay deals with HCT-116 cell line. Briefly: Inhibition of cell growth, MTT tetrazolium salt assay. It is filed as cell-based. Particulars: for HCT-116 % Inhibition at 0.1 μM: HCT-116, at 0.1 μM; for HCT-116 % Inhibition at 0.25 μM: HCT-116, at 0.25 μM. The essentials:
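Growth inhibition was read as MTT-formazan absorbance at 540 nm, after 4 h with 0.2 mg/mL MTT. Before that, HCT-116 cells had been exposed 3–5 days at 37 °C to compounds in 0.5% (v/v) DMSO, added 4 h after plating. 50% and 90% inhibitory concentrations were taken from semi-log concentration–inhibition plots versus vehicle controls.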

T1 sequence (P11802 whole entry): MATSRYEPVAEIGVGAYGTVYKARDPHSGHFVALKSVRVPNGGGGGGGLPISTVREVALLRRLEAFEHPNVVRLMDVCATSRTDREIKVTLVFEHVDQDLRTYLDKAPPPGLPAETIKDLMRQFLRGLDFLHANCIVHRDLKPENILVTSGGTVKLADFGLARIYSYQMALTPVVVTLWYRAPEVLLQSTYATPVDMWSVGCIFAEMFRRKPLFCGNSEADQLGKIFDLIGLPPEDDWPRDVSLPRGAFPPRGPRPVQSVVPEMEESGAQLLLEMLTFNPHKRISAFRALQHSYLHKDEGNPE
T1 sequence (P30281 1-264 partner limits assumed): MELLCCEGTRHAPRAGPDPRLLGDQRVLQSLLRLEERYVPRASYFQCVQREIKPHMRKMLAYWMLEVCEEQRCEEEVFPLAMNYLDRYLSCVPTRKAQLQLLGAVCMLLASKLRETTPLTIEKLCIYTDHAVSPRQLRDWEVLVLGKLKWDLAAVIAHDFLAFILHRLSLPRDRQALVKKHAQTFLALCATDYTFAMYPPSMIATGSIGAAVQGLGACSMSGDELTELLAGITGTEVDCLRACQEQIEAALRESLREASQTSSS

On to `CC(C)CC(C)NC(=O)c1ccc(Nc2nc(N)c(C(=O)c3c(F)cccc3F)s2)cc1` (centres unmarked) [Example G125], for which the “CDK4 % Inhibition at 0.03 μM” value at human CDK4/cyclin D3 was 9%. Further, the “CDK2 % Inhibition at 0.03 μM” value on CDK2/cyclin A was found to be 3%. Further, in the assay with HCT-116 cell line, the “HCT-116 % Inhibition at 0.1 μM” value is 13% and the “HCT-116 % Inhibition at 0.25 μM” value is on record as 59%.
In the same order, the values of `CC(C)CNC(=O)c1ccc(Nc2nc(N)c(C(=O)c3c(F)cccc3F)s2)cc1` [Example G126] are 7%, 3%, 0% and 53%.
The corresponding values for `CCN(CC)CCCNC(=O)c1ccc(Nc2nc(N)c(C(=O)c3c(F)cccc3F)s2)cc1` [Example G127] are 29%, 10%, 0% and 61%.
The corresponding values for `Nc1nc(Nc2ccc(C(=O)NCCCN3CCCCC3)cc2)sc1C(=O)c1c(F)cccc1F` [Example G128] are 41%, 15%, 23% and 78%.
For the molecule `Nc1nc(Nc2ccc(C(=O)NC3CCOC3=O)cc2)sc1C(=O)c1c(F)cccc1F` (centres unmarked) [Example G129], the “CDK4 % Inhibition at 0.03 μM” value on human CDK4/cyclin D3 turned out to be 19%. Besides, the “CDK2 % Inhibition at 0.03 μM” value on CDK2/cyclin A is 11%. Also, in the assay on HCT-116 cell line, the “HCT-116 % Inhibition at 0.1 μM” value is listed as 0% and the “HCT-116 % Inhibition at 0.25 μM” value worked out at 51%.
The corresponding values for `CCOC(=O)Cc1ccc(NC(=O)c2ccc(Nc3nc(N)c(C(=O)c4c(F)cccc4F)s3)cc2)cc1` [Example G130] are 11%, 1%, 0% and 77%.
In the case of `Nc1nc(Nc2ccc(C(=O)NC3CCCC3)cc2)sc1C(=O)c1c(F)cccc1F` [Example G131], the “CDK4 % Inhibition at 0.03 μM” value on human CDK4/cyclin D3 amounted to 16%. Also, at CDK2/cyclin A, the “CDK2 % Inhibition at 0.03 μM” value worked out at 6%. Besides, in the assay on HCT-116 cell line, the “HCT-116 % Inhibition at 0.1 μM” value is recorded as 0% and the “HCT-116 % Inhibition at 0.25 μM” value was 58%.
On to `Nc1nc(Nc2ccc(C(=O)NCCCN3CCOCC3)cc2)sc1C(=O)c1c(F)cccc1F` [Example G132], for which, at human CDK4/cyclin D3, the “CDK4 % Inhibition at 0.03 μM” value came out at 27%. Moreover, the “CDK2 % Inhibition at 0.03 μM” value on CDK2/cyclin A was 9%. For the same molecule, in the assay with HCT-116 cell line, the “HCT-116 % Inhibition at 0.1 μM” value amounted to 0% and the “HCT-116 % Inhibition at 0.25 μM” value is recorded as 52%.
Turning to `CC(CCc1ccccc1)NC(=O)c1ccc(Nc2nc(N)c(C(=O)c3c(F)cccc3F)s2)cc1` (centres unmarked) [Example G133], the “CDK4 % Inhibition at 0.03 μM” value on human CDK4/cyclin D3 is reported as 13%. Also, at CDK2/cyclin A, the “CDK2 % Inhibition at 0.03 μM” value is listed as −6%. In addition, in the assay with HCT-116 cell line, the “HCT-116 % Inhibition at 0.1 μM” value is reported as 0% and the “HCT-116 % Inhibition at 0.25 μM” value came out at 47%.
`Nc1nc(Nc2ccc(C(=O)NCCNc3ccccc3)cc2)sc1C(=O)c1c(F)cccc1F` [Example G134]: the “CDK4 % Inhibition at 0.03 μM” value at human CDK4/cyclin D3 was found to be 38%. Also, at CDK2/cyclin A, the “CDK2 % Inhibition at 0.03 μM” value came to 60%. Besides, in the assay with HCT-116 cell line, the “HCT-116 % Inhibition at 0.1 μM” value worked out at 1% and the “HCT-116 % Inhibition at 0.25 μM” value amounted to 89%.
In the same order, the values of `CC(C)OCCCNC(=O)c1ccc(Nc2nc(N)c(C(=O)c3c(F)cccc3F)s2)cc1` [Example G135] are 25%, 2%, 0% and 56%.
The corresponding values for `CCOCCNC(=O)c1ccc(Nc2nc(N)c(C(=O)c3c(F)cccc3F)s2)cc1` [Example G136] are 12%, −4%, 0% and 49%.
The corresponding values for `NC(=O)CCNC(=O)c1ccc(Nc2nc(N)c(C(=O)c3c(F)cccc3F)s2)cc1` [Example G137] are 25%, 2%, 0% and 59%.
Consider `COc1cc(NC(=O)c2ccc(Nc3nc(N)c(C(=O)c4c(F)cccc4F)s3)cc2)ccc1C` [Example G138], for which the “CDK4 % Inhibition at 0.03 μM” value at human CDK4/cyclin D3 stood at 17%. Also, on CDK2/cyclin A, the “CDK2 % Inhibition at 0.03 μM” value was 7%. For the same molecule, in the assay with HCT-116 cell line, the “HCT-116 % Inhibition at 0.1 μM” value was 0% and the “HCT-116 % Inhibition at 0.25 μM” value is 65%.
For the molecule `Nc1nc(Nc2ccc(C(=O)NC3CCCCC3)cc2)sc1C(=O)c1c(F)cccc1F` [Example G139], at human CDK4/cyclin D3, the “CDK4 % Inhibition at 0.03 μM” value is 17%. Besides, the “CDK2 % Inhibition at 0.03 μM” value at CDK2/cyclin A is 6%. In the assay with HCT-116 cell line, the “HCT-116 % Inhibition at 0.1 μM” value came out at 0% and the “HCT-116 % Inhibition at 0.25 μM” value worked out at 56%.
`Nc1nc(Nc2ccc(C(=O)NCCc3ccccn3)cc2)sc1C(=O)c1c(F)cccc1F` [Example G140]: the “CDK4 % Inhibition at 0.03 μM” value on human CDK4/cyclin D3 came to 19%. Besides, the “CDK2 % Inhibition at 0.03 μM” value on CDK2/cyclin A is recorded as 15%. In the assay on HCT-116 cell line, the “HCT-116 % Inhibition at 0.1 μM” value is given as 0% and the “HCT-116 % Inhibition at 0.25 μM” value is 54%.
In the same order, the values of `CC(C)CCCC(C)NC(=O)c1ccc(Nc2nc(N)c(C(=O)c3c(F)cccc3F)s2)cc1` (centres unmarked) [Example G141] are 11%, 0%, 0% and 50%.
The corresponding values for `CC(=O)NCCNC(=O)c1ccc(Nc2nc(N)c(C(=O)c3c(F)cccc3F)s2)cc1` [Example G142] are 20%, 11%, 0% and 46%.
`Nc1nc(Nc2ccc(C(=O)NCCCn3ccnc3)cc2)sc1C(=O)c1c(F)cccc1F` [Example G143]: at human CDK4/cyclin D3, the “CDK4 % Inhibition at 0.03 μM” value stood at 27%. Also, on CDK2/cyclin A, the “CDK2 % Inhibition at 0.03 μM” value was 2%. In the assay with HCT-116 cell line, the “HCT-116 % Inhibition at 0.1 μM” value amounted to 0% and the “HCT-116 % Inhibition at 0.25 μM” value is reported as 65%.
In the same order, the values of `Nc1nc(Nc2ccc(C(=O)NCC3CC3)cc2)sc1C(=O)c1c(F)cccc1F` [Example G144] are 11%, 0%, 0% and 57%.
The corresponding values for `COC(=O)[C@H](C)NC(=O)c1ccc(Nc2nc(N)c(C(=O)c3c(F)cccc3F)s2)cc1` [Example G145] are 18%, 19%, 0% and 68%.
In the same order, the values of `Nc1nc(Nc2ccc(C(=O)Nc3ccccc3N3CCOCC3)cc2)sc1C(=O)c1c(F)cccc1F` [Example G146] are 7%, 6%, 1% and 52%.
Turning to `CN1CCCC1CCNC(=O)c1ccc(Nc2nc(N)c(C(=O)c3c(F)cccc3F)s2)cc1` (centres unmarked) [Example G147], the “CDK4 % Inhibition at 0.03 μM” value at human CDK4/cyclin D3 came to 35%. For the same molecule, the “CDK2 % Inhibition at 0.03 μM” value at CDK2/cyclin A was found to be 10%. Moreover, in the assay with HCT-116 cell line, the “HCT-116 % Inhibition at 0.1 μM” value is given as 0% and the “HCT-116 % Inhibition at 0.25 μM” value came to 65%.
In the same order, the values of `CCC(C)NC(=O)c1ccc(Nc2nc(N)c(C(=O)c3c(F)cccc3F)s2)cc1` (centres unmarked) [Example G148] are 14%, 5%, 0% and 48%.
The corresponding values for `CN(C)CCNC(=O)c1ccc(Nc2nc(N)c(C(=O)c3c(F)cccc3F)s2)cc1` [Example G149] are 36%, 23%, 10% and 82%.
In the same order, the values of `CCN1CC(NC(=O)c2ccc(Nc3nc(N)c(C(=O)c4c(F)cccc4F)s3)cc2)CN1CC` [Example G150] are 25%, 15%, 0% and 57%.
With `CCC(NC(=O)c1ccc(Nc2nc(N)c(C(=O)c3c(F)cccc3F)s2)cc1)c1ccccc1` (centres unmarked) [Example G151], the “CDK4 % Inhibition at 0.03 μM” value on human CDK4/cyclin D3 worked out at 7%. Also, the “CDK2 % Inhibition at 0.03 μM” value on CDK2/cyclin A is listed as 16%. Moreover, in the assay on HCT-116 cell line, the “HCT-116 % Inhibition at 0.1 μM” value is reported as 27% and the “HCT-116 % Inhibition at 0.25 μM” value is 94%.
`CC(C)[C@@H](CO)NC(=O)c1ccc(Nc2nc(N)c(C(=O)c3c(F)cccc3F)s2)cc1` [Example G152]: the “CDK4 % Inhibition at 0.03 μM” value at human CDK4/cyclin D3 is 7%. Further, on CDK2/cyclin A, the “CDK2 % Inhibition at 0.03 μM” value is reported as 16%. In addition, in the assay with HCT-116 cell line, the “HCT-116 % Inhibition at 0.1 μM” value is 5% and the “HCT-116 % Inhibition at 0.25 μM” value came to 53%.
The corresponding values for `Nc1nc(Nc2ccc(C(=O)Nc3cccc(-c4cnco4)c3)cc2)sc1C(=O)c1c(F)cccc1F` [Example G153] are 15%, 18%, 0% and 66%.

Values taken from patent US6720346B2, “Thiazole benzamide derivatives and pharmaceutical compositions for inhibiting cell proliferation” (Agouron Pharmaceuticals, Inc., priority 2001, dated 2004).
